Article PMC8151276, “An Integrated Approach toward NanoBRET Tracers for Analysis of GPCR Ligand Engagement” (Molecules, 2021)

Experiments:
Format in all cases: binding
BRS3 = molecular target: T1, BRS3 (Homo sapiens, UniProt P32247); test: NanoBRET screen HiBiT-BRS3 in HEK293; settings: BRS3
T1 construct: purchased Promega (in-house HiBiT-GPCR construct library, NanoBRET)
T1 sequence (P32247 1-399): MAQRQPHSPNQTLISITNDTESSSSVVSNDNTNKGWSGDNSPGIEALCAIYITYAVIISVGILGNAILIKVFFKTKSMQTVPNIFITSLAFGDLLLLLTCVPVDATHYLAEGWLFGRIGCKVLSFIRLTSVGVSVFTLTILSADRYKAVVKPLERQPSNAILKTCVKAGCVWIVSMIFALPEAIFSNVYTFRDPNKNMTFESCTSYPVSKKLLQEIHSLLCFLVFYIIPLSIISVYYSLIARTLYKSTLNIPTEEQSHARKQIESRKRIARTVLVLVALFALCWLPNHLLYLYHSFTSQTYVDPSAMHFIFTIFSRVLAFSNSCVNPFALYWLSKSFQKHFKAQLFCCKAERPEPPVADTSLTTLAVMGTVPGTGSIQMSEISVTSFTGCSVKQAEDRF
Description: (§1) Each tracer candidate was screened across the entire library of HiBiT-GPCR constructs using NanoBRET as the detection modality. As depicted in Figure 4A, the specificity of interactions was evaluated through decrease in BRET due to competitive displacement of a bound tracer by excess parental compound. Each tracer was analyzed for binding to each HiBiT-GPCR fusion in the absence and in the presence of competing parental compound. Briefly, HEK293 cells were transfected with HiBiT-GPCR constructs diluted into promoterless DNA to reduce expression and maximize translocation to the cell surface. Each tracer candidate was then screened at concentrations of 1 μM and 0.1 μM across cells expressing these fusions. Cells were treated for 1.5 h with tracer either alone or in the presence of 20 μM competing parental compound (i.e., control). BRET was measured upon addition of purified LgBiT and subsequent complementation with HiBiT genetically fused to a GPCR. The specificity of interactions was assessed through a decrease in BRET signal due to competitive displacement of the bound tracer. To further gauge the robustness of these interactions, the fold response over the control (i.e., BRETtracer/BRETcontrol) was calculated. We chose a 1.5-fold response, which translates to ≥7-fold signal over noise as the minimal threshold required to score an interaction as positive. […]. Below we highlight the screening results obtained for our exemplary fluorescent tracers based on Clozapine, Amitriptyline and AZD1283.
(§2) HiBiT-GPCR DNA constructs were diluted in 10 mM Tris pH 8 to a final concentration of 0.01 μg/μL, arrayed in 96-well plates and stored at −20 °C. For transfection, HEK293 cells were suspended in Opti-MEM (without phenol red) supplemented with 2% fetal bovine serum (Seradigm) and 100 units/mL penicillin–streptomycin (Gibco) at a final concentration of 220,000 cells/mL and dispensed into white 96-well plates at 90 μL/well. Subsequent transfections and screens were carried using an Agilent Bravo Automated Liquid Handling Platform. First, the 96-well HiBiT DNA arrays were diluted 25-fold in Opti-MEM (without serum or phenol red) to a final concentration of 0.0004 μg/μL and 20 μL of the diluted DNAs were transferred into new 96-well plates. Next, promoterless carrier DNA (1 μg/μL) was diluted 25-fold (0.04 μg/μL) and then dispensed into the diluted arrays at 20 μL/well. Following brief mixing, Viafect transfection reagent (Promega) diluted 16-fold into Opti-MEM was dispensed into the plates at 40 μL/well. After mixing by pipetting, plates were incubated for 10 min on the pipetting station deck. The DNA-transfection reagent complexes were then added to plates containing cells. To facilitate the screen, 10 μL of DNA-transfection reagent complexes were added in duplicates to the top 4 and bottom 4 rows, resulting in two identical 48-well arrays per plate. Plates with transfected cells were incubated for 18–20 h at 37 °C/5% CO2. A screen of each tracer across the entire library using two different concentrations requires duplicate plates of transfected cells. Depending on the number of tracers being screened, transfections can be scaled up using the same ratios. The next day, for each tracer, four 20× screening solutions in tracer dilution buffer (Promega) were prepared: two duplicates at final concentration of 20 μM and two duplicates at a final concentration of 2 μM. A competing unmodified compound was added to one of each duplicate at a final concentration of 400 μM. The four resulting solutions were diluted 4-fold in Opti-MEM without serum or phenol red to generate 5× solutions (5 µM and 0.5 µM tracer +/− 100 μM competing compound). To screen the library, a BioTek MultiFlo FX liquid dispenser was used to dispense 22.5 µL of tracer solution to the top 4 rows and 22.5 µL tracer + competing compound solution to the 4 bottom rows. Plates were briefly mixed on an orbital shaker and incubated for 1.5 h at room temperature. […]

VIPR2 = molecular target: T2, VIPR2 (Homo sapiens, UniProt P41587); test: NanoBRET screen HiBiT-VIPR2 in HEK293; settings: VIPR2
T2 construct: purchased Promega (in-house HiBiT-GPCR construct library, NanoBRET)
T2 sequence (P41587 24-438): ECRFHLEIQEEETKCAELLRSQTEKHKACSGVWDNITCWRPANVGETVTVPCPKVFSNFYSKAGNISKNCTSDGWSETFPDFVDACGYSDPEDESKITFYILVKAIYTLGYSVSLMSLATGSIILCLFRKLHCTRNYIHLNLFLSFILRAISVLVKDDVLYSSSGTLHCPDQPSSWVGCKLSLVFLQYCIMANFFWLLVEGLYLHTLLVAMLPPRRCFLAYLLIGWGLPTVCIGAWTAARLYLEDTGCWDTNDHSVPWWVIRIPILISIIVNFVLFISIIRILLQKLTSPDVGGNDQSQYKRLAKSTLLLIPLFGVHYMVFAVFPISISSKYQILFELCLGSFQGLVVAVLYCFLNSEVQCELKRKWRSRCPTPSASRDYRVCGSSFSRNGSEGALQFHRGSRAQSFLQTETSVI
Description: as §1, §2

HCRTR1 = molecular target: T3, HCRTR1 (Homo sapiens, UniProt O43613); test: NanoBRET screen HiBiT-HCRTR1 in HEK293; settings: HCRTR1
T3 construct: purchased Promega (in-house HiBiT-GPCR construct library, NanoBRET)
T3 sequence (O43613 1-425): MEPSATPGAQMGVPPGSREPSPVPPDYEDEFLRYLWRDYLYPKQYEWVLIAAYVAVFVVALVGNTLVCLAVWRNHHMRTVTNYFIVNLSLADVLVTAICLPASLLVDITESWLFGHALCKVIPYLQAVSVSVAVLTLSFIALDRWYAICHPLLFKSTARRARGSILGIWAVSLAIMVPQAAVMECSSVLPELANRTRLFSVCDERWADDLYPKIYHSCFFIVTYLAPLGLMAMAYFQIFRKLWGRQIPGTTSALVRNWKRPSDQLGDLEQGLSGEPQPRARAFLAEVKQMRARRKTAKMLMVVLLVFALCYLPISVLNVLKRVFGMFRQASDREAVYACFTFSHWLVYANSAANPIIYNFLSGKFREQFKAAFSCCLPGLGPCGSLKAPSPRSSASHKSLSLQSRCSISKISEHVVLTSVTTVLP
Description: as §1, §2

Structure (SMILES)	NanoBRET Fold Response (BRS3; tracer 0.1μM)	NanoBRET Fold Response (BRS3; tracer 1μM)	NanoBRET Fold Response (VIPR2; tracer 0.1μM)	NanoBRET Fold Response (VIPR2; tracer 1μM)	NanoBRET Fold Response (HCRTR1; tracer 0.1μM)	NanoBRET Fold Response (HCRTR1; tracer 1μM)	NanoBRET Fold Response (BRS3; 0.1μM)	NanoBRET Fold Response (BRS3; 1μM)	NanoBRET Fold Response (VIPR2; 0.1μM)	NanoBRET Fold Response (VIPR2; 1μM)	NanoBRET Fold Response (HCRTR1; 0.1μM)	NanoBRET Fold Response (HCRTR1; 1μM)
O=C(CCc1ccc2n1[B-](F)(F)[N+]1=C(c3ccc[nH]3)C=CC1=C2)NCc1ccc(C(=O)NCCOCCC(=O)N[C@@H]2CC[C@@]3(O)[C@H]4Cc5ccc(O)c6c5[C@@]3(CCN4CC3CC3)[C@H]2O6)cc1 [Naltrexone-3-NB590]	1.05	0.94	1.17	1.05	0.98	0.88						
Cc1cc2c(s1)Nc1ccccc1N=C2N1CCN(CCCNC(=O)CCOCCOCCOCCOCCNC(=O)CCc2ccc3n2[B-](F)(F)[N+]2=C(c4ccc[nH]4)C=CC2=C3)CC1 [Olanzapine-a-2-NB590]	1.01	1.05	1.00	1.05	0.98	0.99						
O=C(CCc1ccc2n1[B-](F)(F)[N+]1=C(c3ccc[nH]3)C=CC1=C2)NCc1ccc(C(=O)NCCOCCOCCNCC(O)COc2cccc3ccccc23)cc1 (stereo not drawn) [Propranolol-3-NB590]							1.03	1.08	0.95	1.03	1.01	0.94
O=C(CCc1ccc2n1[B-](F)(F)[N+]1=C(c3ccc[nH]3)C=CC1=C2)NCCOCCOCCNC(=O)OCCOCCN1CCN(C2=Nc3ccccc3Sc3ccccc32)CC1 [Quetiapine-a-2-NB590]	0.96	0.98	0.96	0.96	0.98	0.77						
Cc1nc2n(c(=O)c1CCN1CCC(c3noc4cc(F)ccc34)CC1)CCCC2OC(=O)NCCOCCOCCOCCOCCNC(=O)CCc1ccc2n1[B-](F)(F)[N+]1=C(c3ccc[nH]3)C=CC1=C2 (stereo not drawn) [Risperidone-2-NB590]	0.95	0.98	1.03	0.91	1.01	1.05						
CC(C)N(CC[C@H](c1ccccc1)c1cc(CCNC(=O)CCOCCOCCOCCOCCNC(=O)CCc2ccc3n2[B-](F)(F)[N+]2=C(c4ccc[nH]4)C=CC2=C3)ccc1O)C(C)C [Tolterodine-2-NB590]	1.02	1.04	0.98	1.04	1.04	1.16						
CC(C)N(CC[C@H](c1ccccc1)c1cc(CCNC(=O)c2ccc(CNC(=O)CCc3ccc4n3[B-](F)(F)[N+]3=C(c5ccc[nH]5)C=CC3=C4)cc2)ccc1O)C(C)C [Tolterodine-BZ-NB590]	0.89	1.09	0.98	1.07	0.86	1.07						
CCCn1c(=O)c2[nH]c(-c3ccc(OCC(=O)NCCNC(=O)CCOCCNC(=O)c4ccc(CNC(=O)CCc5ccc6n5[B-](F)(F)[N+]5=C(c7ccc[nH]7)C=CC5=C6)cc4)cc3)nc2n(CCC)c1=O [XAC-3-NB590]	0.95	1.04	0.72	0.91	0.91	0.88						
